Values joined by “and” are separate entries in the source; they are usually repeats but may differ in a detail not shown here. Equal entries are not always repeated.
What was measured:
[1] = tested on: PC3 prostate carcinoma cells; test: Cytotoxicity, sulphorodamine B test (PC3); type: cell-based, human; settings: PC3, 72 h of treatment; read-out: IC50 ± SD, cytotoxicity
Experimental: To evaluate the effect of the compound on survival cells, the sulphorodamine B test was used. To measure the effects of the compounds on cell growth, PC3 human prostate carcinoma and A2780 human ovarian carcinoma cells were used. A2780 and PC3 tumour cells were grown RPMI 1640 containing 10% fetal bovine serum (GIBCO).
Tumour cells were seeded in 96-well tissue culture plates at approximately 10% confluence and were allowed to attach and recover for at least 24 h. Varying concentrations of the drugs were then added to each well to calculate their IC50 value (the concentration which inhibits the 50% of cell survival). The plates were incubated at 37° C. for 72 h. At the end of the treatment, the plates were washed by removal of the supernatant and addition of PBS 3 times. 200 μl PBS and 50 μl of cold 80% trichloroacetic acid (TCA) were added. The plates were incubated on ice for at least 1 h. TCA was removed and the plates were washed 3 times by immersion in distilled-water and dried on paper and at 40° C. for 5 min. Then 200 μl of 0.4% sulphorodamine B in 1% acetic acid were added. The plates were incubated at RT for further 30 min. Sulphorodamine B was removed, the plates were washed by immersion in 1% acetic acid 3 times, then they were dried on paper and at 40° C. for 5 min. Then 200 μl Tris 10 mM were added, the plates were kept under stirring for 20 min. The cell survival was determined by means of optical density using a Multiskan spectrofluorimeter at 540 nm. The amount of cells killed was calculated as the percentage decrease in sulphorodamine B binding compared with control cultures.
The IC50 values were calculated with the “ALLFIT” program.

[2] = tested on: A2780 ovarian ca. xenografted in CD1 nude mice; test: Antitumour activity against A2780 ovarian carcinoma xenografted in CD1 nude mice; type: in vivo; settings: for TVI % versus control mice: 6 days after last treatment
Experimental: (§1) Tumour cell lines (3×10^6) were injected s.c. into the right flank of CD1 nude mice (Harlan). Each experimental group included 10 mice. Tumours were implanted on day 0, and tumour growth was followed by biweekly measurements of tumour diameters with a Vernier caliper. Tumour volume was calculated according to the formula: TV (mm^3)=d^2×D/2, where d and D are the shortest diameter and the longest diameter respectively. Drug treatment started when tumours were just measurable on day 3 after tumour inoculation. The drug was administered subcutaneously for two weeks according to the schedule qd×5/w×2w at different doses in a volume of 10 ml/kg. Control mice were treated with the vehicle (10% DMSO).
(§2) Drug efficacy was assessed as described below. • a) TVI in drug-treated versus control mice was expressed as follows: TVI (%)=100−(mean TV treated/mean TV control)×100. TVI was evaluated 6 days after the last treatment, this timing corresponding to the time necessary to observe a doubling of tumour volume in the control mice. • b) Log cell kill (LCK) was calculated using the following formula: LCK=(T−C)/3.32×DT where T and C are the mean time (in days) required for treated (T) and control (C) tumours, respectively to reach a determined volume, and DT is the time necessary to observe a doubling of tumour volume in the control mice. • c) CR was defined as disappearance of the tumour lasting at least 6 days after the end of treatments. Tumours that had not regrown by the end of the experiment were considered “cured”.
(§3) Toxic effects of drug treatment were assessed as described below. • a) BWL was calculated as follows: BWL (%)=100−(mean body weight day x/mean body weight day 1)×100, where day 1 is the first day of treatment, and day x is any day thereafter. Mice were weighed every day throughout the period of treatment. • b) Lethal toxicity was defined as any death in treated groups occurring before any control death. Mice were inspected daily for mortality.
(§4) TI (therapeutic index) was calculated as ratio MTD/ED80.

[3] = as above; type: in vivo; settings: CD1 nude, mouse, in vivo, sc; s.c. qdx5/wx2w; read-out: approximate maximum tolerate dose (MTD)
Experimental: as §1, §2, §3, §4

[4] = 0.92 mg/10 ml/kg s.c. qdx5/wx2w
[5] = 2.77 mg/10 ml/kg s.c. qdx5/wx2w

CC[C@@]1(O)C(=O)OCc2c1cc1n(c2=O)Cc2c-1nc1ccccc1c2C=NOCCNC(=O)OCc1ccc(NC(=O)[C@H](CCCNC(N)=O)NC(=O)[C@H](C)NC(=O)COCCOCCOCC(=O)NCc2ccc(C[C@@H]3NC(=O)[C@@H](Cc4ccccc4)NC(=O)[C@H](CC(=O)O)NC(=O)CNC(=O)[C@H](CCCNC(=N)N)NC3=O)cc2)cc1 [ST3833]
IC50 [1]: 4.6 ± 0.8 µM
BWL % (maximum body weight loss) [2, 4]: 0%
CR (disappearance of tumour) [2, 4]: 3/10
Cured (mice without lesion 90 days after tumour injection) [2, 4]: 3/10
LCK (log cell kill) [2, 4]: 0.9
Lethal toxicity (dead/treated animals) [2, 4]: 0/10
TVI % versus control mice [2, 4]: 60%
cured mice ([2]; 0.92 mg/kg): 30%
BWL % (maximum body weight loss) [2, 5]: 0%
CR (disappearance of tumour) [2, 5]: 3/10
Cured (mice without lesion 90 days after tumour injection) [2, 5]: 3/10
LCK (log cell kill) [2, 5]: 1.1
Lethal toxicity (dead/treated animals) [2, 5]: 0/10
TVI % versus control mice [2, 5]: 75%
cured mice ([2]; 2.77 mg/kg): 30%
BWL % (maximum body weight loss) ([2]; 8.3 mg/10 ml/kg s.c. qdx5/wx2w): 0%
CR (disappearance of tumour) ([2]; 8.3 mg/10 ml/kg s.c. qdx5/wx2w): 5/10
Cured (mice without lesion 90 days after tumour injection) ([2]; 8.3 mg/10 ml/kg s.c. qdx5/wx2w): 4/10
LCK (log cell kill) ([2]; 8.3 mg/10 ml/kg s.c. qdx5/wx2w): 2.7
Lethal toxicity (dead/treated animals) ([2]; 8.3 mg/10 ml/kg s.c. qdx5/wx2w): 0/10
TVI % versus control mice ([2]; 8.3 mg/10 ml/kg s.c. qdx5/wx2w): 100%
BWL % (maximum body weight loss) ([2]; 25 mg/10 ml/kg s.c. qdx5/wx2w): 25% and 24%
CR (disappearance of tumour) ([2]; 25 mg/10 ml/kg s.c. qdx5/wx2w): 9/9
Cured (mice without lesion 90 days after tumour injection) ([2]; 25 mg/10 ml/kg s.c. qdx5/wx2w): 9/9
LCK (log cell kill) ([2]; 25 mg/10 ml/kg s.c. qdx5/wx2w): >11.4
Lethal toxicity (dead/treated animals) ([2]; 25 mg/10 ml/kg s.c. qdx5/wx2w): 1/10
TVI % versus control mice ([2]; 25 mg/10 ml/kg s.c. qdx5/wx2w): 100%
cured mice ([2]; 1/3 MTD (8.3 mg/kg)): 50%
cured mice at day 90 ([2]; at the MTD (25 mg/kg s.c.)): 100%
MTD at 2 weeks [3]: ~25 mg/kg
